Earlier results as cited in patent US20030134851A1, “Methods and compositions for providing glutamine” (priority 2001, published 2003).

Conditions: rodents; cited from earlier work

In the case of `O=C1CC[C@@H](C(=O)O)N1` [pyroglutamic acid], the Neurotoxicity is given as “is a neurotoxin in rodents”.
